Experimental data from patent US20260022142A1, “MACROCYCLIC IMMUNOMODULATORS” (Bristol-Myers Squibb Company, priority 2022, published 2026).
pIC50: −log10 of the molar value. Numbered stars: 1 amine (or outer) side, 2 acyl side, 3 side chain; on linkers, the order of the positions; unused ones are H or OH. Bridge positions count the residues as written; N and C are the ends. Square brackets hold non-standard residues; d marks the D form. Peptide text beside a SMILES is read from it. * marks the point of attachment. ξ: configuration not given here. Phe(3-CF3) = N[C@@H](Cc1cccc(C(F)(F)F)c1)C(=O)O; Phe(4-COOH) = N[C@@H](Cc1ccc(C(=O)O)cc1)C(=O)O; Bip = N[C@@H](Cc1ccc(-c2ccccc2)cc1)C(=O)O; Phe(3-Me) = Cc1cccc(C[C@H](N)C(=O)O)c1; γGlu = O=C(O)[C@H](CCC(=O)[*:2])N[*:1]; βAsp = O=C(O)[C@H](CC(=O)[*:2])N[*:1]; NH(CH2)12COOH = O=C(O)CCCCCCCCCCCCN*; Phe(2-F) = N[C@@H](Cc1ccccc1F)C(=O)O; Val(3-OH) = CC(C)(O)[C@H](N)C(=O)O; 4Pal = N[C@@H](Cc1ccncc1)C(=O)O; Cha = N[C@@H](CC1CCCCC1)C(=O)O; Cit = NC(=O)NCCC[C@H](N)C(=O)O; NMeN = CN[C@@H](CC(N)=O)C(=O)O; Thr(3ξ) = CC(O)[C@H](N)C(=O)O; dDab = NCC[C@@H](N)C(=O)O; Carboxymethyl = O=C(O)C*; Orn = NCCC[C@H](N)C(=O)O; Aun = NCCCCCCCCCCC(=O)O; Dab = NCC[C@H](N)C(=O)O; Abu = CC[C@H](N)C(=O)O; Dap = NC[C@H](N)C(=O)O; AEEA = NCCOCCOCC(=O)O; Piv = CC(C)(C)C(=O)*

What follows are molecules tested against T1, PD-1/PD-L1 interaction (PE-labeled human PD-L1-Ig binding to Jurkat cell line over-expressing human PD-1) (Homo sapiens, UniProt Q15116) (assay: Jurkat-PD-1 Cell Binding High-Content Screening Assay (CBA)). Details: Jurkat cell line over-expressing human PD-1; PE-labeled PD-L1-Ig 20 nM final; read-out: Jurkat hPD1-PDL1 IC50.
T1 construct: expressed in transfected cells; host or cells: Jurkat
T1 sequence (Q15116 25-288): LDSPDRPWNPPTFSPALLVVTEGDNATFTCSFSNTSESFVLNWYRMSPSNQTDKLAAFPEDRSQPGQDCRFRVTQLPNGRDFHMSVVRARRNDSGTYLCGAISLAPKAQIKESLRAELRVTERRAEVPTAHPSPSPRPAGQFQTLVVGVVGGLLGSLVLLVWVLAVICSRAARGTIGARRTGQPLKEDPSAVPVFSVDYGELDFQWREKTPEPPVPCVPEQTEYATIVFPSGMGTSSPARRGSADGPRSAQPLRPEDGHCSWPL
Format: cell-based
Method in brief: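 Human PD-L1-Ig carrying a covalent PE label on its Ig tag serves as the probe, applied at 20 nM final to compound-treated (2 h, 37° C) Jurkat-hPD-1 cells in medium with 10% fetal calf serum. After one hour, fixation and nuclear staining precede high-content image analysis.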

SMILES	pIC50
Cc1cccc(C[C@@H]2NC(=O)[C@H](CC(=O)O)NC(=O)[C@H](Cc3ccc(OCC(=O)O)cc3)NC(=O)[C@H](Cc3ccc(OCC(=O)O)cc3)NC(=O)CSC[C@@H](C(=O)N[C@@H](CCCN)C(=O)NCCCCCCCCCCC(=O)O)NC(=O)[C@H](CO)NC(=O)[C@H](C(C)C)NC(=O)[C@H](CC3CCCCC3)NC(=O)[C@H](CCN)NC(=O)[C@@H](CC(C)C)NC(=O)[C@H](CCCN)NC(=O)[C@H](C(C)C)NC(=O)[C@H](Cc3ccc(-c4ccccc4)cc3)NC(=O)[C@H](CC(C)C)NC2=O)c1 [Compound 1059] ({CH2CO}-Y(Carboxymethyl)Y(Carboxymethyl)D[Phe(3-Me)]L[Bip]V[Orn][dL][Dab][Cha]VSC[Orn][Aun]-OH; thioether N-14)	7.31
Cc1cccc(C[C@@H]2NC(=O)[C@H](CC(=O)O)NC(=O)[C@H](Cc3ccc(OCC(=O)O)cc3)NC(=O)[C@H](CN)NC(=O)CSC[C@@H](C(=O)N[C@@H](CCCCN)C(=O)NCCCCCCCCCCC(=O)O)NC(=O)[C@H](CCCNC(N)=O)NC(=O)[C@H](C(C)C)NC(=O)[C@H](CC3CCCCC3)NC(=O)[C@H](CCN)NC(=O)[C@@H](CC(C)C)NC(=O)[C@H](CCCN)NC(=O)[C@H](CCCNC(N)=O)NC(=O)[C@H](Cc3ccc(-c4ccccc4)cc3)NC(=O)[C@H](C(C)C)NC2=O)c1 [Compound 2641] ({CH2CO}-[Dap]Y(Carboxymethyl)D[Phe(3-Me)]V[Bip][Cit][Orn][dL][Dab][Cha]V[Cit]CK[Aun]-OH; thioether N-14)	7.56
CC[C@@H]1NC(=O)CSC[C@@H](C(=O)N[C@@H](CCN)C(=O)NCCOCCOCC(=O)N[C@@H](CCC(=O)NCCOCCOCC(=O)NCCCCCCCCCCCCC(=O)O)C(=O)O)NC(=O)[C@H](CO)NC(=O)[C@H](C(C)(C)O)NC(=O)[C@H](CC2CCCCC2)NC(=O)[C@H](CCN)NC(=O)[C@@H](CC(C)C)NC(=O)[C@H](CCCN)NC(=O)[C@H](Cc2ccc(C(=O)O)cc2)NC(=O)[C@H](Cc2ccc(-c3ccccc3)cc2)NC(=O)[C@H](Cc2ccc(C(=O)O)cc2)NC(=O)[C@H](Cc2cccc(C(F)(F)F)c2)NC(=O)[C@H](CC(=O)O)NC(=O)[C@H](Cc2ccc(OCC(=O)O)cc2)NC1=O [Compound 2932] ({CH2CO}-[Abu]Y(Carboxymethyl)D[Phe(3-CF3)][Phe(4-COOH)][Bip][Phe(4-COOH)][Orn][dL][Dab][Cha][Val(3-OH)]SC[Dab][AEEA][γGlu][AEEA]-{NH(CH2)12COOH}; thioether N-14)	7.48
Cc1cccc(C[C@@H]2NC(=O)[C@H](CC(=O)O)NC(=O)[C@H](Cc3ccc(OCC(=O)O)cc3)NC(=O)[C@H](Cc3ccc(OCC(=O)O)cc3)NC(=O)CSC[C@@H](C(=O)N[C@H](CCN)C(=O)NCCCCCCCCCCC(=O)O)NC(=O)[C@H](CO)NC(=O)[C@H](C(C)C)NC(=O)[C@H](CC(C)C)NC(=O)[C@H](CCN)NC(=O)[C@@H](CC(C)C)NC(=O)[C@H](CCCN)NC(=O)[C@H](C(C)C)NC(=O)[C@H](Cc3ccc(-c4ccccc4)cc3)NC(=O)[C@@H](CC(C)C)NC2=O)c1 [Compound 1145] ({CH2CO}-Y(Carboxymethyl)Y(Carboxymethyl)D[Phe(3-Me)][dL][Bip]V[Orn][dL][Dab]LVSC[dDab][Aun]-OH; thioether N-14)	7.58
CC(C)C[C@H]1NC(=O)[C@H](CCCN)NC(=O)[C@H](Cc2ccc(O)cc2)NC(=O)[C@H](Cc2ccc(-c3ccccc3)cc2)NC(=O)[C@H](CCCCNC(=O)C(C)(C)C)NC(=O)[C@H](Cc2c[nH]c3ccccc23)NC(=O)[C@H](CC(=O)O)NC(=O)[C@H](Cc2ccc(OCC(=O)O)cc2)NC(=O)[C@H](C(C)O)NC(=O)CSC[C@@H](C(=O)NCCOCCOCC(=O)NCCCCCCCCCCC(=O)O)NC(=O)[C@H](CO)NC(=O)[C@H](Cc2cnc[nH]2)NC(=O)[C@H](CC2CCCCC2)NC(=O)[C@H](CCN)NC1=O (stereo partly drawn) [Compound 3699] ({CH2CO}-[Thr(3ξ)]Y(Carboxymethyl)DWK(Piv)[Bip]Y[Orn][dL][Dab][Cha]HSC[AEEA][Aun]-OH; thioether N-14)	7.01

Molecules with a higher pIC50, results first:

pIC50	SMILES
7.93	CC(C)C[C@@H]1NC(=O)CSC[C@@H](C(=O)N[C@@H](CCN)C(=O)NCCOCCOCC(=O)N[C@@H](CC(=O)NCCOCCOCC(=O)NCCCCCCCCCCCCC(=O)O)C(=O)O)NC(=O)[C@H](CO)NC(=O)[C@H](C(C)(C)O)NC(=O)[C@H](CC2CCCCC2)NC(=O)[C@H](CCN)NC(=O)[C@@H](CC(C)C)NC(=O)[C@H](CCCN)NC(=O)[C@H](Cc2ccc(C(=O)O)cc2)NC(=O)[C@H](Cc2ccc(-c3ccccc3)cc2)NC(=O)[C@H](Cc2ccc(C(=O)O)cc2)NC(=O)[C@H](Cc2cccc(C(F)(F)F)c2)NC(=O)[C@H](CC(=O)O)NC(=O)[C@H](Cc2ccc(OCC(=O)O)cc2)NC1=O [Compound 2937] ({CH2CO}-LY(Carboxymethyl)D[Phe(3-CF3)][Phe(4-COOH)][Bip][Phe(4-COOH)][Orn][dL][Dab][Cha][Val(3-OH)]SC[Dab][AEEA][βAsp][AEEA]-{NH(CH2)12COOH}; thioether N-14)
7.99	Cc1cccc(C[C@@H]2NC(=O)[C@H](CC(=O)O)NC(=O)[C@H](Cc3ccc(OCC(=O)O)cc3)NC(=O)[C@H](Cc3ccncc3)NC(=O)CSC[C@@H](C(=O)N[C@@H](CCN)C(=O)NCCCCCCCCCCC(=O)O)NC(=O)[C@H](CO)NC(=O)[C@H](C(C)(C)O)NC(=O)[C@H](CC3CCCCC3)NC(=O)[C@H](CCN)NC(=O)[C@@H](CC(C)C)NC(=O)[C@H](CCCN)NC(=O)[C@H](Cc3ccc(OCC(=O)O)cc3)NC(=O)[C@H](Cc3ccc(-c4ccccc4)cc3)NC(=O)[C@H](Cc3ccccc3F)NC2=O)c1 [Compound 2184] ({CH2CO}-[4Pal]Y(Carboxymethyl)D[Phe(3-Me)][Phe(2-F)][Bip]Y(Carboxymethyl)[Orn][dL][Dab][Cha][Val(3-OH)]SC[Dab][Aun]-OH; thioether N-14)
8.06	Cc1cccc(C[C@@H]2NC(=O)[C@H](CC(=O)O)NC(=O)[C@H](Cc3ccc(OCC(=O)O)cc3)NC(=O)[C@H](C(C)O)NC(=O)CSC[C@@H](C(=O)N(C)[C@@H](CC(N)=O)C(=O)NCCCCCCCCCCC(=O)O)NC(=O)[C@H](CCCCN)NC(=O)[C@H](C(C)C)NC(=O)[C@H](CC3CCCCC3)NC(=O)[C@H](CCN)NC(=O)[C@@H](CC(C)C)NC(=O)[C@H](CCCN)NC(=O)[C@H](C(C)C)NC(=O)[C@H](Cc3ccc(-c4ccccc4)cc3)NC(=O)[C@H](C(C)C)NC2=O)c1 (stereo partly drawn) [Compound 3340] ({CH2CO}-[Thr(3ξ)]Y(Carboxymethyl)D[Phe(3-Me)]V[Bip]V[Orn][dL][Dab][Cha]VKC[NMeN][Aun]-OH; thioether N-14)
8.33	Cc1cccc(C[C@@H]2NC(=O)[C@H](CC(=O)O)NC(=O)[C@H](Cc3ccc(OCC(=O)O)cc3)NC(=O)[C@H](CCN)NC(=O)CSC[C@@H](C(=O)N[C@@H](CCN)C(=O)NCCOCCOCC(=O)NCCOCCOCC(=O)NCCOCCOCC(=O)NCCCCCCCCCCC(=O)O)NC(=O)[C@H](CCC(=O)O)NC(=O)[C@H](C(C)(C)O)NC(=O)[C@H](CC3CCCCC3)NC(=O)[C@H](CCN)NC(=O)[C@@H](CC(C)C)NC(=O)[C@H](CCCN)NC(=O)[C@H](Cc3ccc(OCC(=O)O)cc3)NC(=O)[C@H](Cc3ccc(-c4ccccc4)cc3)NC(=O)[C@H](Cc3ccc(OCC(=O)O)cc3)NC2=O)c1 [Compound 3771] ({CH2CO}-[Dab]Y(Carboxymethyl)D[Phe(3-Me)]Y(Carboxymethyl)[Bip]Y(Carboxymethyl)[Orn][dL][Dab][Cha][Val(3-OH)]EC[Dab][AEEA][AEEA][AEEA][Aun]-OH; thioether N-14)
